pIC50: −log10 of the molar value.
Columns and labels:
[1] = logD by shake flask method (octanol / PBS pH 7.4, HPLC); assay type: physicochemical; conditions: octanol / PBS pH 7.4, shake flask
Procedure, shortened: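 LogD obtained by HPLC measurement of how the compound distributes between PBS (pH 7.4) and octanol in a shake-flask experiment.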

[2] = target: T1, recombinant human transglutaminase 2 (Homo sapiens, UniProt P21980); test: Transglutaminase assay (DCC-assay): incorporation of dansylcadaverine into dimethylcasein; assay type: biochemical; conditions: recombinant human TG2 10 nM; dansylcadaverine incorporation into dimethylcasein; read-out: IC50 TG2
T1 construct: purchased Zedira T022
T1 sequence (P21980 1-687): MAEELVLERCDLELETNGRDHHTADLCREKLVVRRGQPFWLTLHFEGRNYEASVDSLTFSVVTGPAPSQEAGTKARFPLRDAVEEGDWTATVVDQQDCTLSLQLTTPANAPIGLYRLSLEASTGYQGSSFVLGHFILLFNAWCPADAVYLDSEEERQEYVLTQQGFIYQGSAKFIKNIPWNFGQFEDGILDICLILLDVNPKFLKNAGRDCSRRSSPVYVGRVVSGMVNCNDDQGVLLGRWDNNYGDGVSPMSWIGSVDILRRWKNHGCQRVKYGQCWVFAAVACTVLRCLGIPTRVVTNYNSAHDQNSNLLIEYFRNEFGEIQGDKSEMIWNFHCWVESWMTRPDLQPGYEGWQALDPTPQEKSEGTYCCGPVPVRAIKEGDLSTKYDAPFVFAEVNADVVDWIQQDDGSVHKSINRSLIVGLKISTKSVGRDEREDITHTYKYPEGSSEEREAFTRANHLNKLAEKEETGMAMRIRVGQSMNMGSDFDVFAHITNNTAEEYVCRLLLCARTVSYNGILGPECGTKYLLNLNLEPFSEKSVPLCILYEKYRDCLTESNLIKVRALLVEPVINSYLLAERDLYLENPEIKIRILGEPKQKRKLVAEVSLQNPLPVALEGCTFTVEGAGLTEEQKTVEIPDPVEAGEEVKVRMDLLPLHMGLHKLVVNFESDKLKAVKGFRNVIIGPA
Procedure, shortened: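 IC50 is the inhibitor level that blocks 50% of initial activity. Activity is the fluorescence slope (λex 330, λem 500 nm) between 20 and 30 min of a 37 °C run, relative to a 2% DMSO control. The enzyme is recombinant human tissue transglutaminase, 10 nM final, tested against a 1:2 inhibitor dilution series in a pH 8.0 mix with 10 mM CaCl2, 10 mM glutathione, 16.7 µM dansylcadaverine and 4 µM N,N-dimethylcasein.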

[3] = Caco-2 permeability assay (CacoReady kit); assay type: in vitro ADME; conditions: human, Caco-2, Caco-2 barrier, CacoReady kit; above 1×10^−6 cm/s classified as permeable
Procedure, shortened: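 Compounds are tested on pre-formed Caco-2 barriers supplied as a ready-to-use kit, following the kit protocol, and the Papp value is derived to estimate intestinal absorption.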

| logD [1] | pIC50 [2] | Papp [3] | SMILES |
| --- | --- | --- | --- |
| 1 to 3 | > 7.40 | 1 to 10 ×10⁻⁶ cm/s | CNC(=O)C(=O)CC[C@H](NC(=O)c1cc(Cl)sc1Cl)C(=O)Nc1cccn(CC(=O)N[C@@H]2C[C@@H]3CC[C@H]2C3)c1=O [II-155, (S)-N1-(1-(2-((1S,2R,4R)-bicyclo[2.2.1]heptan-2-ylamino)-2-oxoethyl)-2-oxo-1,2-dihydropyridin-3-yl)-2-(2,5-dichlorothiophene-3-carboxamido)-N6-methyl-5-oxohexanediamide] |
| < 1 | 6.40 to 7.40 | < 1 ×10⁻⁶ cm/s | CNC(=O)C(=O)CC[C@H](NC(=O)c1snnc1C1CC1)C(=O)Nc1cccn(CC(=O)NC2C3CC4CC(C3)CC2C4)c1=O (stereo partly drawn) [II-202, (S)-2-(4-cyclopropyl-1,2,3-thiadiazole-5-carboxamido)-N1-(1-(2-(2-adamantylamino)-2-oxoethyl)-2-oxo-1,2-dihydropyridin-3-yl)-N6-methyl-5-oxohexanediamide] |
| < 1 | 6.40 to 7.40 | < 1 ×10⁻⁶ cm/s | CNC(=O)C(=O)CC[C@H](NC(=O)c1snnc1C)C(=O)Nc1cccn(CC(=O)N[C@@H]2C[C@H]3CC[C@@H]2C3)c1=O [II-152, (S)-N1-(1-(2-((1R,2R,4S)-bicyclo[2.2.1]heptan-2-ylamino)-2-oxoethyl)-2-oxo-1,2-dihydropyridin-3-yl)-N6-methyl-2-(4-methyl-1,2,3-thiadiazole-5-carboxamido)-5-oxohexanediamide] |
| 3 to 5 | 6.40 to 7.40 | 1 to 10 ×10⁻⁶ cm/s | CNC(=O)C(=O)CC[C@H](NC(=O)c1oc2ccccc2c1C)C(=O)Nc1cccn(CC23CC4CC(CC(C4)C2)C3)c1=O [II-107, (S)-N1-(1-(1-adamantylmethyl)-2-oxo-1,2-dihydropyridin-3-yl)-N6-methyl-2-(3-methylbenzofuran-2-carboxamido)-5-oxohexanediamide] |
| 1 to 3 | 6.40 to 7.40 | < 1 ×10⁻⁶ cm/s | CNC(=O)C(=O)CC[C@H](NC(=O)c1cncn1C)C(=O)Nc1cccn(CC(=O)NC23CC4(C)CC(C)(CC(C)(C4)C2)C3)c1=O [II-211, (S)-N1-(1-(2-(3,5,7-trimethyl-1-adamantylamino)-2-oxoethyl)-2-oxo-1,2-dihydropyridin-3-yl)-N6-methyl-2-(1-methyl-1H-imidazole-5-carboxamido)-5-oxohexanediamide] |
| 3 to 5 | 5.60 to 6.40 | 1 to 10 ×10⁻⁶ cm/s | O=C(Cn1cccc(NC(=O)[C@H](CCC(=O)C(=O)Nc2ccccc2)NC(=O)c2cc3ccccc3o2)c1=O)NC1C2CC3CC(C2)CC1C3 (stereo partly drawn) [II-122, (S)-2-(benzofuran-2-carboxamido)-N1-(1-(2-(2-adamantylamino)-2-oxoethyl)-2-oxo-1,2-dihydropyridin-3-yl)-5-oxo-N6-phenylhexanediamide] |
| < 1 | 6.40 to 7.40 | < 1 ×10⁻⁶ cm/s | CNC(=O)C(=O)CC[C@H](NC(=O)c1csnn1)C(=O)Nc1cccn(CC(=O)NC23CC(C2)C3)c1=O [II-198, (S)-N1-(1-(2-(bicyclo[1.1.1]pentan-1-ylamino)-2-oxoethyl)-2-oxo-1,2-dihydropyridin-3-yl)-N6-methyl-5-oxo-2-(1,2,3-thiadiazole-4-carboxamido)hexanediamide] |
| < 1 | 6.40 to 7.40 | < 1 ×10⁻⁶ cm/s | Cc1nnsc1C(=O)N[C@@H](CCC(=O)C(N)=O)C(=O)Nc1cccn(CC(=O)NC2C3CC4CC(C3)CC2C4)c1=O (stereo partly drawn) [II-145, (S)-N1-(1-(2-(2-adamantylamino)-2-oxoethyl)-2-oxo-1,2-dihydropyridin-3-yl)-2-(4-methyl-1,2,3-thiadiazole-5-carboxamido)-5-oxohexanediamide] |
| 3 to 5 | 6.40 to 7.40 | 1 to 10 ×10⁻⁶ cm/s | CNC(=O)C(=O)CC[C@H](NC(=O)c1oc2ccccc2c1C)C(=O)Nc1cccn(CC2C3CC4CC(C3)CC2C4)c1=O (stereo partly drawn) [II-110, (S)-N1-(1-(2-adamantylmethyl)-2-oxo-1,2-dihydropyridin-3-yl)-N6-methyl-2-(3-methylbenzofuran-2-carboxamido)-5-oxohexanediamide] |
| 3 to 5 | 6.40 to 7.40 | < 1 ×10⁻⁶ cm/s | CNC(=O)C(=O)CC[C@H](NC(=O)c1sc(Br)c(Br)c1OC)C(=O)Nc1cccn(CC(=O)NC2C3CC4CC(C3)CC2C4)c1=O (stereo partly drawn) [II-46, (S)-2-(4,5-dibromo-3-methoxythiophene-2-carboxamido)-N1-(1-(2-(2-adamantylamino)-2-oxoethyl)-2-oxo-1,2-dihydropyridin-3-yl)-N6-methyl-5-oxohexanediamide] |
| 1 to 3 | 5.60 to 6.40 | 1 to 10 ×10⁻⁶ cm/s | O=C(Cn1cccc(NC(=O)[C@H](CCC(=O)C(=O)NC2CCCC2)NC(=O)c2cn3ccsc3n2)c1=O)N[C@@H]1C[C@@H]2CC[C@H]1C2 [II-179, (S)-N1-(1-(2-((1S,2R,4R)-bicyclo[2.2.1]heptan-2-ylamino)-2-oxoethyl)-2-oxo-1,2-dihydropyridin-3-yl)-N6-cyclopentyl-2-(imidazo[2,1-b]thiazole-6-carboxamido)-5-oxohexanediamide] |
| 3 to 5 | > 7.40 | 1 to 10 ×10⁻⁶ cm/s | CNC(=O)C(=O)CC[C@H](NC(=O)c1sc(Br)cc1Br)C(=O)Nc1cccn(CC(=O)NC2C3CC4CC(C3)CC2C4)c1=O (stereo partly drawn) [II-22, (S)-2-(3,5-dibromothiophene-2-carboxamido)-N1-(1-(2-(2-adamantylamino)-2-oxoethyl)-2-oxo-1,2-dihydropyridin-3-yl)-N6-methyl-5-oxohexanediamide] |
| < 1 | > 7.40 | < 1 ×10⁻⁶ cm/s | CNC(=O)C(=O)CC[C@H](NC(=O)[C@@H]1CCCN1C(C)=O)C(=O)Nc1cccn(CC(=O)NC2C3CC4CC(C3)CC2C4)c1=O (stereo partly drawn) [II-50, (S)-2-((S)-1-acetylpyrrolidine-2-carboxamido)-N1-(1-(2-(2-adamantylamino)-2-oxoethyl)-2-oxo-1,2-dihydropyridin-3-yl)-N6-methyl-5-oxohexanediamide] |
| < 1 | 6.40 to 7.40 | 1 to 10 ×10⁻⁶ cm/s | CNC(=O)C(=O)CC[C@H](NC(=O)c1c(C)noc1C)C(=O)Nc1cccn(CC(=O)NC2C3CCCC2CC3)c1=O (stereo partly drawn) [II-172, (2S)-N1-(1-(2-(bicyclo[3.2.1]octan-8-ylamino)-2-oxoethyl)-2-oxo-1,2-dihydropyridin-3-yl)-2-(3,5-dimethylisoxazole-4-carboxamido)-N6-methyl-5-oxohexanediamide] |
| < 1 | 6.40 to 7.40 | < 1 ×10⁻⁶ cm/s | CNC(=O)C(=O)CC[C@H](NC(=O)c1oc2ccccc2c1C)C(=O)Nc1cccn(CC(=O)NC2C3CC4CC2CC(O)(C4)C3)c1=O (stereo partly drawn) [II-68, (S)-N1-(1-(2-(5-hydroxyadamantane-2-amino)-2-oxoethyl)-2-oxo-1,2-dihydropyridin-3-yl)-N6-methyl-2-(3-methylbenzofuran-2-carboxamido)-5-oxohexanediamide] |
| < 1 | 5.60 to 6.40 | < 1 ×10⁻⁶ cm/s | Cn1nccc1C(=O)N[C@@H](CCC(=O)C(N)=O)C(=O)Nc1cccn(CC(=O)NC2C3CC4CC(C3)CC2C4)c1=O (stereo partly drawn) [II-144, (S)-N1-(1-(2-(2-adamantylamino)-2-oxoethyl)-2-oxo-1,2-dihydropyridin-3-yl)-2-(1-methyl-1H-pyrazole-5-carboxamido)-5-oxohexanediamide] |
| 1 to 3 | > 7.40 | < 1 ×10⁻⁶ cm/s | CNC(=O)C(=O)CC[C@H](NC(=O)c1cncc([N+](=O)[O-])c1)C(=O)Nc1cccn(CC(=O)NC2C3CC4CC(C3)CC2C4)c1=O (stereo partly drawn) [II-63, (S)-N1-(1-(2-(2-adamantylamino)-2-oxoethyl)-2-oxo-1,2-dihydropyridin-3-yl)-N6-methyl-2-(5-nitronicotinamido)-5-oxohexanediamide] |
| 1 to 3 | 6.40 to 7.40 | 1 to 10 ×10⁻⁶ cm/s | CNC(=O)C(=O)CC[C@H](NC(=O)c1nc(Cl)sc1C)C(=O)Nc1cccn(CC(=O)NC2C3CC4CC(C3)CC2C4)c1=O (stereo partly drawn) [II-31, (S)-2-(2-chloro-5-methylthiazole-4-carboxamido)-N1-(1-(2-(2-adamantylamino)-2-oxoethyl)-2-oxo-1,2-dihydropyridin-3-yl)-N6-methyl-5-oxohexanediamide] |
| 1 to 3 | > 7.40 | 1 to 10 ×10⁻⁶ cm/s | CNC(=O)C(=O)CC[C@H](NC(=O)c1oc2ccccc2c1Cl)C(=O)Nc1cccn(CC(=O)NC2C3CC4CC(C3)CC2C4)c1=O (stereo partly drawn) [II-4, (S)-2-(3-chlorobenzofuran-2-carboxamido)-N1-(1-(2-(2-adamantylamino)-2-oxoethyl)-2-oxo-1,2-dihydropyridin-3-yl)-N6-methyl-5-oxohexanediamide] |
